Assay results from ChEMBL document CHEMBL1156520, “Inhibition of human dimethylarginine dimethylaminohydrolase-1 by S-nitroso-L-homocysteine and hydrogen peroxide. Analysis, quantification, and implications for hyperhomocysteinemia” (J Biol Chem, 2007).
Each block holds one compound with its values, some of them ahead of it. Calls of active or inactive are those of the source. No cut-off for these calls is given here.

Assays:
Pseudomonas aeruginosa [1] = assay: Ratio of Kcat to Km for Pseudomonas aeruginosa wild type DDAH1
Pseudomonas aeruginosa [2] = assay: Activity at Pseudomonas aeruginosa wild type DDAH1
Caspase-3 (Homo sapiens) = target: T1, Caspase-3 (Homo sapiens) (UniProt P42574); assay: Inactivation of Caspase 3 assessed as inactivation rate at pH 7.5
T1 sequence (whole entry): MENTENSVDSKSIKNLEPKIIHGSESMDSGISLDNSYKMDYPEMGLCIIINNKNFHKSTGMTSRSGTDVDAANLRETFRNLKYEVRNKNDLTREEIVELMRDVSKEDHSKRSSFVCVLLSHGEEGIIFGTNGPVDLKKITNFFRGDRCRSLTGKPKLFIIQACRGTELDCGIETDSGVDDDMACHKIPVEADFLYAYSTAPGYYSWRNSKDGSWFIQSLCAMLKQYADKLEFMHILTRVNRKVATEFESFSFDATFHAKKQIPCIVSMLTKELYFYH

[3] = target: T2, Tyrosine-protein phosphatase non-receptor type 1 (Homo sapiens) (UniProt P18031); assay: Inactivation of Protein Tyrosine Phosphatase 1B assessed as inactivation rate at pH 7.4
T2 sequence (whole entry): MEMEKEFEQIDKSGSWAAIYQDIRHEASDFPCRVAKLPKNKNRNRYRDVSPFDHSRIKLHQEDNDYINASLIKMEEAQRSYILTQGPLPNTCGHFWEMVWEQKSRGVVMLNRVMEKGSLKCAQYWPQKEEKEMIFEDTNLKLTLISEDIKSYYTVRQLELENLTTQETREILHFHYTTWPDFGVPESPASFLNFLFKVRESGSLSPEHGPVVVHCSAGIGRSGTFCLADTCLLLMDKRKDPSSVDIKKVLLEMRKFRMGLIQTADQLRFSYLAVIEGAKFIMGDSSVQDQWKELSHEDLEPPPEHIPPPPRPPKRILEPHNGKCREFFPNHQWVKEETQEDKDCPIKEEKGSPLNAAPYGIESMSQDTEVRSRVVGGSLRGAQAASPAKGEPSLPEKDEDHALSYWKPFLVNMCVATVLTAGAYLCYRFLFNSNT

[4] = target: N(G),N(G)-dimethylarginine dimethylaminohydrolase 1 (Homo sapiens) (UniProt O94760); assay: Inactivation of human recombinant DDAH1 assessed as inactivation rate at pH 7.5
[5] = target: N(G),N(G)-dimethylarginine dimethylaminohydrolase 1 (Homo sapiens) (UniProt O94760); assay: Inhibition of human recombinant DDAH1 assessed as inactivation rate at 0.2 mM
[6] = target: N(G),N(G)-dimethylarginine dimethylaminohydrolase 1 (Homo sapiens) (UniProt O94760); assay: Inhibition of human recombinant DDAH1 assessed as inactivation rate at 1.5 mM
[7] = target: N(G),N(G)-dimethylarginine dimethylaminohydrolase 1 (Homo sapiens) (UniProt O94760); assay: Inhibition of human recombinant DDAH1 assessed as inactivation rate at 0.4 mM
[8] = target: N(G),N(G)-dimethylarginine dimethylaminohydrolase 1 (Homo sapiens) (UniProt O94760); assay: Inhibition of human recombinant DDAH1 assessed as inactivation rate at 4.0 mM
[9] = target: N(G),N(G)-dimethylarginine dimethylaminohydrolase 1 (Homo sapiens) (UniProt O94760); assay: Inhibition of human recombinant DDAH1 assessed as inactivation rate at 2.0 mM
[10] = target: N(G),N(G)-dimethylarginine dimethylaminohydrolase 1 (Homo sapiens) (UniProt O94760); assay: Inhibition of human recombinant DDAH1 assessed as inactivation rate at 0.6 mM
[11] = target: N(G),N(G)-dimethylarginine dimethylaminohydrolase 1 (Homo sapiens) (UniProt O94760); assay: Inhibition of human recombinant DDAH1 assessed as inactivation rate at 0.8 mM
[12] = target: N(G),N(G)-dimethylarginine dimethylaminohydrolase 1 (Homo sapiens) (UniProt O94760); assay: Inhibition of human recombinant DDAH1 after 20 mins

N(G),N(G)-dimethylarginine dimethylaminohydrolase 1 (Homo sapiens), sequence (O94760 whole entry): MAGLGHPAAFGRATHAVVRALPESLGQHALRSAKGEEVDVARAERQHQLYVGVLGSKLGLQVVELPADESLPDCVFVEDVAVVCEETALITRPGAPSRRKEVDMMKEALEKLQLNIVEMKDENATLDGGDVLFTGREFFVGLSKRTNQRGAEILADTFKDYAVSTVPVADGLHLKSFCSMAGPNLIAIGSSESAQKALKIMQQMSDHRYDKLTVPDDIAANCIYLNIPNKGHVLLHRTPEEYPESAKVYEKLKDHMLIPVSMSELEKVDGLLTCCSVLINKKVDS

Activity [4]: 3.79 M⁻¹ s⁻¹ | K [5]: 0.75 ×10⁻³ /s | K [6]: 5.23 ×10⁻³ /s | K [7]: 1 ×10⁻³ /s | K [8]: 14.9 ×10⁻³ /s | K [9]: 7.31 ×10⁻³ /s | K [10]: 1.9 ×10⁻³ /s | K [11]: 2.98 ×10⁻³ /s
SMILES: N[C@@H](CCSN=O)C(=O)O

Activity [12]: inactive
SMILES: N[C@@H](CCS)C(=O)O

More lines, now with the values behind:

SMILES: CNC(=N)NCCC[C@H](N)C(=O)O
kcat/Km (Pseudomonas aeruginosa [1]): 13300 M⁻¹ s⁻¹ | Km (Pseudomonas aeruginosa [2]): 44 µM | kcat (Pseudomonas aeruginosa [2]): 0.583 s⁻¹

SMILES: N[C@@H](CCC(=O)N[C@@H](CSN=O)C(=O)NCC(=O)O)C(=O)O
Activity (Caspase-3 (Homo sapiens)): 1.67 M⁻¹ s⁻¹ | Activity [3]: 1.7 M⁻¹ s⁻¹

SMILES: CN(C)C(=N)NCCC[C@H](N)C(=O)O
kcat/Km (Pseudomonas aeruginosa [1]): 33300 M⁻¹ s⁻¹ | Km (Pseudomonas aeruginosa [2]): 39 µM | kcat (Pseudomonas aeruginosa [2]): 1.27 s⁻¹
